Experimental data from publication PMC3403540, “Active Hydrophilic Components of the Medicinal Herb Salvia miltiorrhiza (Danshen) Potently Inhibit Organic Anion Transporters 1 (Slc22a6) and 3 (Slc22a8)” (Evidence-based Complementary and Alternative Medicine : eCAM, 2012).

Molecular target: T1, mOat3 (Mus musculus, UniProt O88909)
T1 construct: expressed in transfected cells; host or cells: CHO (Chinese hamster ovary), stably transfected (CHO-mOat3)
T1 sequence (O88909 1-537): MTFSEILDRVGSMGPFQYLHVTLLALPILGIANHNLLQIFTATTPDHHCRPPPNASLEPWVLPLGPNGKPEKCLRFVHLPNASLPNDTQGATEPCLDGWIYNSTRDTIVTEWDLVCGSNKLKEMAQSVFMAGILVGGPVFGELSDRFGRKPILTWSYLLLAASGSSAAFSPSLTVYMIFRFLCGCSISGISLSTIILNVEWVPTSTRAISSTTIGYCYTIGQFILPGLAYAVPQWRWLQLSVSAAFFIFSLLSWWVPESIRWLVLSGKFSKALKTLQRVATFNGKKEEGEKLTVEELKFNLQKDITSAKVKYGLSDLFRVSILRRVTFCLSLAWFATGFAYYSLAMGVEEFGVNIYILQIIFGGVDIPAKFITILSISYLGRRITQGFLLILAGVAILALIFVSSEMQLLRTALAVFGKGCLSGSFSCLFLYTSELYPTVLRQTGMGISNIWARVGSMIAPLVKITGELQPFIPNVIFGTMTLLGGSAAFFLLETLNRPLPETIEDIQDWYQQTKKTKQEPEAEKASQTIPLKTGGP
Assay: Inhibition of mOat3-mediated [3H]ES uptake in CHO-mOat3 cells (cell accumulation assay)
Type: cell-based, murine
Conditions: for Ki / inhibition at 1000 µM: 1 μM [3H]ES; for Ki: 1 min, CHO-mOat3, mean ± S.E.M. (n = 3), from IC50 via Cheng-Prusoff, read-out: Estimated K i for mOat3-mediated transport; for inhibition at 1000 µM: 1 mM (1000 μM) inhibitor, 10 min, CHO-mOat3 cells, read-out: inhibition of mOat3-mediated ES uptake; for mode of inhibition of mOat3-mediated transport: mixed inhibition model, ES substrate
Protocol: Derivation of the stably transfected Chinese hamster ovary (CHO) cell lines expressing mOat1 (CHO-mOat1), mOat3 (CHO-mOat3), and the empty vector (FRT) transfected control cell line (CHO-FRT) was described previously.
Cell transport assay procedures were adapted from those previously published. In brief, 2 × 10^5 cells/well were seeded in 24-well tissue culture plates and grown in the absence of antibiotics for 48 hr. On the day of the experiment, cells were equilibrated with transport buffer for 10 min (500 μL of Hanks' balanced salt solution containing 10 mM HEPES, pH 7.4). […] After incubation, cells were immediately rinsed three times with ice-cold transport buffer, lysed, and analyzed via liquid scintillation counting. Uptake values were normalized to corresponding total protein content in cell lysates as determined by the Bradford method. Substrate accumulation is reported as picomoles of substrate per milligram protein. […] Kinetic calculations were performed using GraphPad Prism Software version 5.0 (GraphPad Software Inc., San Diego, CA, USA). Michaelis constant (K m) values were calculated by nonlinear regression using the Michaelis-Menten model. Mode of inhibition was identified by using mixed model inhibition analysis as follows: (1) Vmax Apparent =Vmax/(1+[I]/(α×Ki)),Km Apparent=Km1+[I]/Ki/(1+[I]/(α×Ki)),Y=Vmax Apparent×x/Km Apparent+x, where V max, K i, and I represent the maximum transport velocity without inhibitor, the inhibition constant generated from the data set under analysis, and the concentration of inhibitor, respectively. In this study, three curves were constructed (no inhibitor, plus two selected inhibitor concentrations) with uptake of substrate plotted as a function of its concentration for each condition. […] The parameter, α, can then be used to determine the mode of inhibition. When α is very large (α > 1), it indicates competitive inhibition. Otherwise, it indicates noncompetitive inhibition (α = 1) or uncompetitive inhibition (0 < α < 1). To estimate K i values, IC50 values were calculated using nonlinear regression and inserted into the Cheng-Prusoff equation: K i = IC50/(1 + [Substrate]/K m). Results were confirmed by repeating all experiments at least three times with triplicate wells for each data point in every experiment.
Figure 2 Inhibition profile of mOat1 and mOat3. […] (5 μM) by LSA, PCA, RMA, SAA, SAB, TSL, and probenecid (1000 μM) was measured in the CHO-mOat1 cells (10 min). […] (b) Inhibition of mOat3-mediated uptake of [^3H]ES (1 μM) by LSA, PCA, RMA, SAA, SAB, TSL, and probenecid (1000 μM) was measured in the CHO-mOat3 cells (10 min). […] Values are mean ± S.D. of triplicate values. ***denotes P < 0.001 as determined by one-way ANOVA followed by Dunnett's t-test.
Figure 5 K i determination for LSA, RMA, and SAA in the CHO-mOat3 cell line. One minute uptake of [^3H]ES (1 μM) in CHO-mOat3 cells was measured in the presence of increasing concentrations (10^−7 to 4 × 10^−4 M) of LSA, RMA, and SAA. Data were corrected for nonspecific background measured in the CHO-FRT cells prior to kinetic analysis. K i values were determined with non-linear regression and the “one-site competition” model using GraphPad Prism software. Graphs shown are from representative experiments with values plotted as mean ± S.D. (n = 3).

Row | Ki | inhibition at 1000 µM | mode of inhibition of mOat3-mediated transport | Estimated α value from mixed inhibition model analysis, mOat3 (1 μM ES for 1 min, mean, α > 1 indicates competitive inhibition) | Structure (SMILES)
1 | 31.1 ± 7 µM | > 91% | competitive | – | O=C(/C=C/c1ccc(O)c2c1[C@H](C(=O)O)[C@@H](c1ccc(O)c(O)c1)O2)O[C@H](Cc1ccc(O)c(O)c1)C(=O)O [LSA, lithospermic acid]
2 | 4.3 ± 0.2 µM | > 91% | competitive | – | O=C(/C=C/c1ccc(O)c(O)c1)O[C@H](Cc1ccc(O)c(O)c1)C(=O)O [RMA, rosmarinic acid]
3 | 21.3 ± 7.7 µM | > 91% | competitive | 3.4 × 10^14 | O=C(/C=C/c1ccc(O)c(O)c1/C=C/c1ccc(O)c(O)c1)O[C@H](Cc1ccc(O)c(O)c1)C(=O)O [SAA, salvianolic acid A]

Row | Structure (SMILES) | Ki | inhibition at 1000 µM | mode of inhibition of mOat3-mediated transport | Estimated α value from mixed inhibition model analysis, mOat3 (1 μM ES for 1 min, mean, α > 1 indicates competitive inhibition)
4 | O=C(O)C(O)Cc1ccc(O)c(O)c1 (centres unmarked) [TSL, tanshinol] | – | ~55% | – | –
